Like-named read-outs stand apart in the source and are kept apart here.
What was measured:
[1] = Antibiotic concentrations in porcine oral fluid after intramuscular application (UHPLC-MS/MS); type: in vivo; settings: pigs, i.m.; for concentration at 1 d / concentration at 2 d / concentration at 3 d / concentration at 4 d / concentration at 5 d / concentration at 6 d / concentration at 7 d / concentration at 8 d / concentration at 9 d / concentration at 10 d / concentration at 11 d / concentration at 12 d / concentration at 13 d / concentration at 14 d / concentration at 15 d / concentration at 16 d / concentration at 17 d / concentration at 18 d / concentration at 19 d / concentration at 20 d / concentration at 21 d / concentration at 22 d / concentration at 23 d / concentration at 24 d / concentration at 25 d / concentration at 26 d / concentration at 27 d / concentration at 28 d / concentration at 29 d / concentration at 30 d: male, (Landrace × Yorkshire) × Duroc crossbred (DanBred sows), pig, intramuscular; for concentration at 1 d / concentration at 2 d / concentration at 3 d / concentration at 4 d / concentration at 5 d / concentration at 6 d / concentration at 7 d / concentration at 8 d / concentration at 9 d / concentration at 10 d / concentration at 11 d / concentration at 12 d / concentration at 13 d / concentration at 14 d / concentration at 15 d / concentration at 16 d / concentration at 17 d / concentration at 18 d / concentration at 19 d / concentration at 20 d / concentration at 21 d / concentration at 22 d / concentration at 23 d / concentration at 24 d / concentration at 25 d / concentration at 26 d / concentration at 27 d / concentration at 28 d / concentration at 29 d / concentration at 30 d / concentration in oral fluid at withdrawal period / Avarage Concentrations in oral fluid: oral fluid; for concentration in oral fluid at withdrawal period: at the end of the withdrawal period for tissues of each drug (Table 3); for distribution to oral fluid: conclusion in words
Description: All animals were born in the sow farm (8000 DanBred sows) located in Northern Poland, after crossing ♀(♂Landrace × ♀Yorskshire) × ♂Duroc. Piglets were weaned after 4 weeks of lactation with an average weight of 6 kg and then moved to the weaner stable (23,000 weaners). After the next 7 weeks, animals were transported to the 9000-places fattening farm with an average body weight of 28 kg, where the trial was performed. All farms in the aforementioned three-phase model used weekly batches and an all-in all-out system. Specialist veterinary and production management care were provided in each location.
For the purpose of the study, 240 immunologically castrated boars were divided into 8 groups, 30 animals in each pen. For the control group, 30 pigs were used in separate pens. Their initial body weight was between 40 and 60 kg. Pigs were housed at 20–25 °C. Fatteners were fed ad libitum with antimicrobial-free water and feed provided by feeders throughout the study. Before the experiment, water and feed were checked for antimicrobials, and no antimicrobial treatments were administered to these pigs before. All animals in one pen were treated due to the same health issue using disposable needles and the same drug and dosage. Pens were separated from each other with concrete walls. The drugs and dosage administered to each experimental group with an indication of withdrawal period for tissues are listed in Table 3. The oral fluid samples were collected using three cotton ropes (70 cm length with 1 cm diameter) in each pen suspended separately for 25 min on the front wall of the pen with bottoms at the pigs’ shoulder height, away from water and feed.
The research material was one pooled sample of oral fluid from 10 pigs, in triplicate, per pen. Ropes were removed immediately after collection. The first oral fluid sample was collected 24 h after the first injection. The collection of each subsequent sample took place at the same time (11:30 A.M.) for 35 consecutive days. Additionally, oral fluid samples were collected from pigs not treated with any antibiotics. Oral fluid from each pen was pooled into one 50-mL Falcon plastic tube and centrifuged at 9447× rcf for 15 min. Centrifuged material was transferred to a 15 mL plastic tube and frozen at −20 °C until analysis.
Before the analysis, the oral fluid samples were centrifuged at 9447× rcf. Next, an aliquot (1 mL) of oral fluid was placed into a 2 mL polypropylene centrifuge tube, and the 30 µL of the internal standard at the concentration of 2 µg/mL was added. For the extraction of analysed antibiotics, 600 µL of 0.5% formic acid was added, vortexed for 30 s and centrifuged for 10 min at 9447× rcf. Then, the supernatant was filtered through a […] PVDF filter into an amber glass vial before chromatographic analysis.
The mass spectrometry detection was operated in the positive ESI mode with multiple reaction monitoring (MRM).

[2] = weak organic acid; cited from earlier work
[3] = first day of medication (abstract), read-out: concentration in oral fluid on the first day of medication
[4] = time 1 d (24 h after first injection), treatment period, read-out: Avarage Concentrations in oral fluid
[5] = treatment period, read-out: Avarage Concentrations in oral fluid
[6] = time 4 d, posttreatment, read-out: Avarage Concentrations in oral fluid
[7] = posttreatment, read-out: Avarage Concentrations in oral fluid
[8] = time 30 d, posttreatment, read-out: Avarage Concentrations in oral fluid
[9] = time 1 d (24 h after first injection), treatment period

SMILES	concentration at 1 d [1, 3]	concentration at 1 d [1, 4]	concentration at 2 d [1, 5]	concentration at 3 d [1, 5]	concentration at 4 d [1, 6]	concentration at 5 d [1, 7]	concentration at 6 d [1, 7]	concentration at 7 d [1, 7]	concentration at 8 d [1, 7]	concentration at 9 d [1, 7]	concentration at 10 d [1, 7]	concentration at 11 d [1, 7]	concentration at 12 d [1, 7]	concentration at 13 d [1, 7]	concentration at 14 d [1, 7]	concentration at 15 d [1, 7]	concentration at 16 d [1, 7]	concentration at 17 d [1, 7]	concentration at 18 d [1, 7]	concentration at 19 d [1, 7]	other results
COc1ncnc(NS(=O)(=O)c2ccc(N)cc2)c1OC [SDX, sulfadoxine]	22300 ng/g	22300 ng/mL	5860 ± 1160 ng/mL	4570 ± 766 ng/mL	4010 ng/mL	5780 ± 788 ng/mL	4070 ± 669 ng/mL	310 ± 98 ng/mL	392 ± 88 ng/mL	386 ± 72 ng/mL	134 ± 49 ng/mL	247 ± 62 ng/mL	74.8 ± 21 ng/mL	68 ± 16 ng/mL	77.4 ± 18 ng/mL	69.8 ± 14 ng/mL	78.4 ± 12 ng/mL	47 ± 18 ng/mL	44.2 ± 16 ng/mL	58.4 ± 11 ng/mL	concentration at 20 d [1, 7]: 76.4 ± 14 ng/mL; concentration at 21 d [1, 7]: 21.4 ± 7.3 ng/mL; concentration at 22 d [1, 7]: 25.3 ± 6.9 ng/mL; concentration at 23 d [1, 7]: 15.9 ± 7.2 ng/mL; concentration at 24 d [1, 7]: 37 ± 5.4 ng/mL; concentration at 25 d [1, 7]: 31.5 ± 6.3 ng/mL; concentration at 26 d [1, 7]: 19.1 ± 4.2 ng/mL; concentration at 27 d [1, 7]: 19.3 ± 3.7 ng/mL; concentration at 28 d [1, 7]: 35 ± 8.1 ng/mL; concentration at 29 d [1, 7]: 30.4 ± 7.6 ng/mL; concentration at 30 d [1, 8]: 23 ng/mL; concentration in oral fluid at withdrawal period [1]: 247 ng/mL; Avarage Concentrations in oral fluid [1, 9]: 22,300 ± 3555 µg/L; Avarage Concentrations in oral fluid ([1]; time 4 d, posttreatment): 4010 ± 601 µg/L; Avarage Concentrations in oral fluid ([1]; time 30 d, posttreatment): 23.0 ± 6.2 µg/L; distribution to oral fluid [1]: high distribution; pKa [2]: 6.16
COc1cc(Cc2cnc(N)nc2N)cc(OC)c1OC [TRMP, trimethoprim]	14100 ng/g	14100 ng/mL	2810 ± 556 ng/mL	1810 ± 311 ng/mL	1030 ± 221 ng/mL	1400 ± 255 ng/mL	1280 ± 198 ng/mL	264 ± 73 ng/mL	125 ± 41 ng/mL	128 ± 38 ng/mL	36.4 ± 15 ng/mL	67.1 ± 20 ng/mL	25.2 ± 9.6 ng/mL	22 ± 8.7 ng/mL	22.1 ± 6.4 ng/mL	31.6 ± 11 ng/mL	24.2 ± 8.2 ng/mL	18.9 ± 4.8 ng/mL	13 ± 3.6 ng/mL	42 ± 14 ng/mL	concentration at 20 d [1, 7]: 36.4 ± 10 ng/mL; concentration at 21 d [1, 7]: 10.2 ± 4.4 ng/mL; concentration at 22 d [1, 7]: 46.4 ± 16 ng/mL; concentration at 23 d [1, 7]: 6.9 ± 2.4 ng/mL; concentration at 24 d [1, 7]: 19.4 ± 5.5 ng/mL; concentration at 25 d [1, 7]: 17.8 ± 4.1 ng/mL; concentration at 26 d [1, 7]: 15.9 ± 3.6 ng/mL; concentration at 27 d [1, 7]: 10.4 ± 2.9 ng/mL; concentration at 28 d [1, 7]: 16.5 ± 6.2 ng/mL; concentration at 29 d [1, 7]: 21.2 ± 9.4 ng/mL; concentration at 30 d [1, 8]: 22.4 ng/mL; concentration in oral fluid at withdrawal period [1]: 67.1 ng/mL; Avarage Concentrations in oral fluid [1, 9]: 14,100 ± 2556 µg/L; Avarage Concentrations in oral fluid ([1]; time 30 d, posttreatment): 22.4 ± 9.1 µg/L; distribution to oral fluid [1]: high distribution

— publication PMC8879095, “UHPLC-MS/MS Analysis of Antibiotics Transfer and Concentrations in Porcine Oral Fluid after Intramuscular Application” (Pharmaceuticals, 2022)
